Source: patent US10597388B2, “Pyridazinone herbicides” (FMC CORPORATION, priority 2014, dated 2020)

Experiments:
Experiment in all cases: Test E greenhouse herbicide test, pre- and postemergence
Format in all cases: in vivo
Settings in all cases: Postemergence
[1] = system: arrowleaf sida (Sida rhombifolia)
In short: (§1)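 Compounds in surfactant-containing solvent are applied to soil right after sowing (silt loam) and, in parallel, to 1- to 4-leaf plants in a peat-based medium. Weed control is scored visually on a 0 (none) to 100 (complete) scale at 14 to 21 d.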

[2] = system: panicum, fall (fall panicum, Panicum dichotomiflorum)
In short: as §1

[3] = system: barnyardgrass (Echinochloa crus-galli)
In short: as §1

[4] = system: dayflower (Virginia (VA) dayflower, Commelina virginica)
In short: as §1

[5] = system: sandbur (southem sandbur, Cenchrus echinatus)
In short: as §1

[6] = system: ragweed (common ragweed, Ambrosia elatior)
In short: as §1

[7] = system: pigweed, palmer (palmer pigweed, Amaranthus palmeri)
In short: as §1

[8] = system: horseweed (Conyza canadensis)
In short: as §1

corn (Zea mays) = system: corn (Zea mays)
In short: as §1

[9] = 62 g ai/ha, scale 0 to 100 (0 no effect, 100 complete control)
[10] = 125 g ai/ha, scale 0 to 100 (0 no effect, 100 complete control)
[11] = 250 g ai/ha, scale 0 to 100 (0 no effect, 100 complete control)
[12] = 31 g ai/ha, visual, scale 0 no effect to 100 complete control

Compound | Plant response rating, Arrowleaf Sida [1, 9] | Plant response rating, Arrowleaf Sida [1, 10] | Plant response rating, Arrowleaf Sida [1, 11] | Plant response rating, Arrowleaf Sida [1, 12] | Plant response rating, Panicum, Fall [2, 9] | Plant response rating, Panicum, Fall [2, 10] | Plant response rating, Panicum, Fall [2, 11] | Plant response rating, Panicum, Fall [2, 12] | Plant response rating, Barnyardgrass [3, 9] | Plant response rating, Barnyardgrass [3, 10] | Plant response rating, Barnyardgrass [3, 11] | Plant response rating, Barnyardgrass [3, 12] | Plant response rating, Dayflower, VA [4, 9] | Plant response rating, Dayflower, VA [4, 10] | Plant response rating, Dayflower, VA [4, 11] | Plant response rating, Dayflower, VA [4, 12] | Plant response rating, Sandbur [5, 10] | Plant response rating, Sandbur [5, 11] | Plant response rating, Sandbur [5, 12] | Plant response rating, Ragweed [6, 9] | other results
CCC(=O)Oc1c(C)nn(C)c(=O)c1-c1c(C)sc2ccc(C)cc12 [Compound 42] | 60 | 70 | 80 | 20 | 50 | 80 | 95 | 60 | 30 | 30 | 35 | 20 | 50 | 60 | 70 | 30 | 60 | 60 | 35 | 85 | Plant response rating, Sandbur [5, 9]: 50; Plant response rating, Ragweed [6, 10]: 95; Plant response rating, Ragweed [6, 11]: 90; Plant response rating, Ragweed [6, 12]: 90; Plant response rating, Pigweed, Palmer [7, 9]: 75; Plant response rating, Pigweed, Palmer [7, 10]: 60; Plant response rating, Pigweed, Palmer [7, 11]: 95; Plant response rating, Pigweed, Palmer [7, 12]: 70; Plant response rating, Horseweed [8, 9]: 75; Plant response rating, Horseweed [8, 10]: 75; Plant response rating, Horseweed [8, 11]: 85; Plant response rating, Horseweed [8, 12]: 75; Plant response rating, Corn (corn (Zea mays); [9]): 15; Plant response rating, Corn (corn (Zea mays); [10]): 15; Plant response rating, Corn (corn (Zea mays); [11]): 20; Plant response rating, Corn (corn (Zea mays); [12]): 10
COc1nn(C)c(=O)c(-c2c(C)sc3ccc(Cl)cc23)c1O [Compound 100] | 60 | 70 | 75 | 50 | 50 | 70 | 80 | 30 | 40 | 30 | 50 | 30 | 0 | 0 | 0 | 0 | 40 | 50 | 20 | 85 | Plant response rating, Ragweed [6, 10]: 90; Plant response rating, Ragweed [6, 11]: 90; Plant response rating, Ragweed [6, 12]: 75; Plant response rating, Pigweed, Palmer [7, 9]: 30; Plant response rating, Pigweed, Palmer [7, 10]: 40; Plant response rating, Pigweed, Palmer [7, 11]: 50; Plant response rating, Pigweed, Palmer [7, 12]: 20; Plant response rating, Horseweed [8, 9]: 70; Plant response rating, Horseweed [8, 10]: 75; Plant response rating, Horseweed [8, 11]: 80; Plant response rating, Horseweed [8, 12]: 35; Plant response rating, Corn (corn (Zea mays); [9]): 5; Plant response rating, Corn (corn (Zea mays); [10]): 0; Plant response rating, Corn (corn (Zea mays); [11]): 0; Plant response rating, Corn (corn (Zea mays); [12]): 0
